Reference: publication PMC5430633, “Phosphorylation of the mitochondrial autophagy receptor Nix enhances its interaction with LC3 proteins” (Scientific Reports, 2017)

Legend:
EGFP-LC3B K49A = experiment: Co-immunoprecipitation with EGFP-LC3B K49A; type: binding, human; settings: Figs S3 and S7; vs wild type LC3B
Description: (§1) Cells were scraped, centrifuged at 500 g for 5 min, and lysed in 150 µL CHAPS lysis buffer (2% CHAPS, 1% Triton X-100, 137 mM NaCl, 2 mM EDTA, 10% glycerol, and 20 mM Tris-HCl, pH 8.0) containing protease and phosphatase inhibitors. 5 µL of total lysate was kept as Input sample and 145 µL of cell lysate was incubated with 12.5 µL α-GFP (1:40, Roche)-coupled Dynabeads Protein G (purchased from Invitrogen) for 2 hrs at 4 °C. This step was followed by three washing steps using 0.02% Tween-20/PBS and immunoprecipitated proteins were eluted from Dynabeads by adding 4X LDS buffer (purchased from Invitrogen) and 10X sample reducing agent (purchased from Invitrogen) to the beads. Heating at 70 °C for 10 min will denaturized the proteins to analyze them by Western blotting.

GFP-LC3B K51A = experiment: Co-immunoprecipitation with GFP-LC3B K51A; type: binding, human; settings: α-GFP IP, Western blot
Description: as §1

GFP-LC3B wild type = experiment: Co-immunoprecipitation with GFP-LC3B wild type; type: binding, human; settings: α-GFP IP, Western blot
Description: as §1

GST-LC3B K49A = experiment: GST pull-down with GST-LC3B K49A; type: binding, human; settings: Fig. 3a, vs wild type LC3B
Description: (§2) GST fusions of various proteins (pGEX plasmids) were expressed in BL21 E. coli. Fusion protein expression was induced by adding 0.5 mM IPTG for 4 hrs. Bacteria were lysed in 20 mM Tris-HCl, pH 7.5, 10 mM EDTA, pH 8.0, 5 mM EGTA, 150 mM NaCl supplemented with 2 mg/ml lysozyme. GST fusion proteins were subsequently bound to pre-washed Glutathione-Sepharose 4B beads (GE Healthcare). After several washes, fusion protein-bound beads were used directly in binding assays.
(§3) HEK293 or HeLa cells were transfected with expression constructs encoding the protein of interest using JetPRIME (Polyplus Transfection). 24 hrs post-transfection cells were lysed in 50 mM HEPES, pH 7.5, 150 mM NaCl, 1 mM EDTA pH 8.0, 1 mM EGTA, 10% glycerol, 1% Triton X-100, 25 mM NaF, […] and lysates were incubated for 4 hrs with immobilized GST-fusion proteins at 4 °C. Following 5 washes, beads with co-precipitated proteins were resuspended in 2x SDS-PAGE loading buffer, boiled and loaded onto 10% or 12% SDS-PAGE gels for analysis. All GST pull-down experiments were performed in triplicates.

GST-LC3B [1] = experiment: GST pull-down with GST-LC3B wild type; type: binding, human; settings: for interaction with GST-LC3B wild type: Flag-Nix in cell lysate, Fig. 3a; for interaction with GST-LC3B: Fig. 1b, triplicates
Description: as §2, §3

[2] = tested on: HEK293 cells (mitochondrial loss); experiment: Mitochondrial removal by flow cytometry; type: cell-based; settings: HEK293, GFP-Nix, 10 μM CCCP 24 hours; vs wild type
Description: HEK293 cells were transfected with GFP expression constructs encoding the protein of interest using JetPRIME (Polyplus Transfection). 24 hrs post-transfection cells were treated with 10 µM CCCP for 24 hrs. After treatment, cells were washed with PBS, trypsinized with trypsin for 5 min and resuspended by gentle pipetting. Trypsin-mediated digestion was arrested by the addition of DMEM supplemented with 10% FBS and cells were centrifuged at 500 g for 5 min. To remove cell clumps, cells were resuspended in PBS and filtered through the 70 µm Cell Strainer (BD Falcon). Approximately 10^6 cells were acquired for further flow cytometry analysis. Before fixation, cells were washed twice with FACS buffer (2% FBS, 0,02% NaN3 in PBS) and each time centrifuged at 500 g for 5 min. Cells were fixed with freshly prepared 4% paraformaldehyde for 10 min at room temperature, washed twice with FACS buffer and finally resuspended in […] prior to analysis. […] The acquired data were gated for singlets by generating FSC-A vs FSC-H plot after which dead cells were excluded and the mean fluorescence in FL1 channel was collected. The mean fluorescence of the CCCP and CCCP/Baf treated samples was compared with the untreated control and the results were expressed as a percentage of the retained mitochondria of at least two independent experiments. Results were analyzed using FlowLogic software.

[3] = tested on: HeLa cells expressing GFP-LC3B wild type; experiment: Colocalization / sequestration of mitochondria with GFP-LC3B wild type, fluorescence microscopy; type: cell-based; settings: Fig. 4a
Description: (§4) HeLa cells were seeded, grown on coverslips or 8-well microscopy slides (ibidi) and transfected with either wild type or mutant Nix or Bnip3 together with wild type or mutant LC3B constructs using JetPRIME transfection reagent according to manufacturer’s instructions. 24 hrs post transfection cells were fixed in 2% or 4% paraformaldehyde and permeabilized with 0,1% Triton X-100 solution. Cells were blocked in 5% BSA/PBS/0.1% Triton X-100 for 1 hr at room temperature or 4 °C overnight. Primary and secondary antibodies were diluted in blocking solution and washed in 0,1% Triton X-100/PBS. Coverslips were mounted in Prolong mounting media (Invitrogen). Cells in 8-well microscopy slides were placed in PBS following staining. Cells were imaged using a Zeiss AxioVision or DeltaVision RT microscope system (Applied Precision). Quantification of Nix-LC3B colocalization was performed as follows: for each Nix construct, LC3B positive dots (signals) were numbered in 100 cells. Only clear and well-defined LC3B signals are taken into consideration, while weak and oversized signals were excluded from the analysis.
HeLa cells were plated in 8-well microscopy µ-slides (ibidi) were transfected GFP-LC3 and RFP-Nix WT, S34,35A or S34,35E. From Z-stacks, single cells were cropped for analysis by ImageJ. Binary masks for each slice within ≥10 representative Z-stacks per condition of (i) Nix-labeled mitochondria and (ii) GFP-LC3 were generated by image segmentation. Slice-by-slice co-localization of mitochondrial and AV masks were calculated using the Boolean AND function. All slices for each binary stack were summed, and the ratio of area calculated from mitochondrialy-localized AV over total mitochondria content is reported as a cellular fraction.

[4] = tested on: HeLa cells (recruitment of LC3B to mitochondria); experiment: LC3B positive vesicles per 100 cells, immunofluorescence microscopy; type: cell-based; settings: 10 µM CCCP for 2 hours, vs wild type and S34,35A, three independent experiments, Fig. 3b
Description: as §4

[5] = tested on: HeLa cells expressing GFP-LC3B K51A; experiment: Colocalization with GFP-LC3B K51A, fluorescence microscopy; type: cell-based; settings: Fig. 4d,e
Description: as §4, with “Only clear and well-defined LC3B signals are taken into consideration, while weak and oversized signals were excluded from the analysis.” left out
HeLa cells were plated in 8-well microscopy µ-slides (ibidi) were transfected GFP-LC3 and RFP-Nix WT, S34,35A or S34,35E. […] Slice-by-slice co-localization of mitochondrial and AV masks were calculated using the Boolean AND function. All slices for each binary stack were summed, and the ratio of area calculated from mitochondrialy-localized AV over total mitochondria content is reported as a cellular fraction.

[6] = tested on: cells expressing LC3B K49A; experiment: Colocalization with LC3B K49A, fluorescence microscopy; type: cell-based; settings: vs wild type LC3B
Description: as §4

GST-LC3A = experiment: GST pull-down with GST-LC3A; type: binding, human; settings: Fig. 1b, triplicates
Description: as §2, §3

EGFP-LC3B R11A = experiment: Co-immunoprecipitation with EGFP-LC3B R11A; type: binding, human; settings: α-GFP IP, 24 hrs post transfection, Fig. S5a
Description: as §1

GST-LC3B [7] = settings: ref [17]; cited from earlier work
Description: Recently, it was determined that phosphorylation of serine residues juxtaposed to the LIR motif is responsible for the activation of receptor functions for Optn and Bnip3[5],[14]. […] Therefore, we mutated Ser34 and Ser35 in Nix to alanine, glutamic acid or aspartic acid re ...

EGFP-LC3B R10A = experiment: Co-immunoprecipitation with EGFP-LC3B R10A; type: binding, human; settings: α-GFP IP, 24 hrs post transfection, Fig. S5a
Description: as §1

LC3B wild type = molecular target: T1, LC3B wild type (Homo sapiens, UniProt Q9GZQ8); experiment: Isothermal titration calorimetry (ITC), LC3B wild type; type: binding
T1 construct: Ub3 (ubiquitin fusion) (N); made in house
Description: (§5) Before the experiment, the proteins and peptides were equilibrated with a buffer containing 40 mM Na2HPO4, 80 mM NaCl at pH 7.0, and supplied with 5 mM protease inhibitors cocktail.
(§6) All titration experiments were performed at 25 °C using a VP-ITC microcalorimeter (MicroCal Inc., MA, USA). The ITC-data were analyzed with the ITC-Origin 7.0 software with a “one-site” binding model. The peptides at concentrations of 0.31 mM were titrated into 0.018 mM LC3B proteins in 25 steps. The proteins and peptides concentrations were calculated from the UV-absorption at 280 nm by Nanodrop spectrophotometer (Thermo Fisher Scientific, DE, USA).

LC3B K49A = molecular target: T2, LC3B K49A (Homo sapiens, UniProt Q9GZQ8, K49A); experiment: ITC, LC3B K49A mutant; type: binding
T2 construct: Ub3 (ubiquitin fusion) (N); made in house
Description: as §5, §6

Bnip3 wild type: mitophagy receptor Bnip3, homolog of Nix [reference compound]
affinity to LC3B K49A (in words) (EGFP-LC3B K49A): increased affinity
co-immunoprecipitation with GFP-LC3B K51A (GFP-LC3B K51A): does not

Bnip3S17,24E: Bnip3 S17,24E mutant [reference compound]
co-immunoprecipitation with GFP-LC3B K51A (GFP-LC3B K51A): absent
co-immunoprecipitation with GFP-LC3B wild type (GFP-LC3B wild type): strongly bound

Nix S34,35A: Nix with serine-to-alanine mutations to disable phosphorylation
interaction with GST-LC3B K49A (GST-LC3B K49A): strongly increased binding
interaction with GST-LC3B wild type (GST-LC3B [1]): did not interact
co-immunoprecipitation with GFP-LC3B wild type (GFP-LC3B wild type): no interaction
mitochondrial loss (fraction of removed mitochondria), in words [2]: slightly reduced compared to wild type
targeting of mitochondria to LC3B autophagosomes / colocalization with GFP-LC3B [3]: lack of such a recruitment
targeting of mitochondria to LC3B autophagosomes / colocalization with GFP-LC3B ([3]; listed as RFP-Nix S34,35A): does not colocalize

Nix S34,35D: phosphomimetic Nix double mutant
recruitment of LC3B-positive vesicles [4]: increased recruitment of LC3B-positive vesicles compared to wild type and S34,35A

Nix S34,35E: phosphomimetic Nix double mutant
recruitment of LC3B-positive vesicles [4]: increased recruitment of LC3B-positive vesicles compared to wild type and S34,35A
colocalization with GFP-LC3B K51A [5]: loss of cellular colocalization
interaction with GST-LC3B wild type (GST-LC3B [1]): robustly bound
colocalization with LC3B K49A [6]: increased
co-immunoprecipitation with GFP-LC3B K51A (GFP-LC3B K51A): unable to immunoprecipitate
co-immunoprecipitation with GFP-LC3B wild type (GFP-LC3B wild type): strong interaction
mitochondrial loss (fraction of removed mitochondria), in words [2]: more rapid
targeting of mitochondria to LC3B autophagosomes / colocalization with GFP-LC3B [3]: enhanced targeting of mitochondria to LC3B autophagosomes relative to wild type Nix
targeting of mitochondria to LC3B autophagosomes / colocalization with GFP-LC3B ([3]; listed as S34,35E): enhanced colocalization

Nix S34E: single phosphomimetic Nix mutant
interaction with GST-LC3A (GST-LC3A): stronger than wild type Nix but weaker than the double serine phosphomimetic S34,35D Nix mutant
interaction with GST-LC3B (GST-LC3B [1]): stronger than wild type Nix but weaker than the double serine phosphomimetic S34,35D Nix mutant

Nix S35E: single phosphomimetic Nix mutant
interaction with GST-LC3A (GST-LC3A): stronger than wild type Nix but weaker than the double serine phosphomimetic S34,35D Nix mutant
interaction with GST-LC3B (GST-LC3B [1]): stronger than wild type Nix but weaker than the double serine phosphomimetic S34,35D Nix mutant

Nix wild type: mitophagy receptor Nix, wild type, expressed in cells
co-immunoprecipitation with LC3B R11A (EGFP-LC3B R11A): do not coimmunoprecipitate
interaction with GST-LC3B K49A (GST-LC3B K49A; listed as Nix): increased affinity
interaction with GST-LC3B K49A (GST-LC3B K49A; listed as wild type Nix): strongly increased binding
interaction rank of LC3B among Nix partners (GST-LC3B [7]): weakest
colocalization with GFP-LC3B K51A [5]: does not colocalize
interaction with GST-LC3B (GST-LC3B [1]): considerably weaker than with LC3A
co-immunoprecipitation with GFP-LC3B K51A (GFP-LC3B K51A): fails to coimmunoprecipitate
co-immunoprecipitation with LC3B R10A (EGFP-LC3B R10A): do not coimmunoprecipitate
co-immunoprecipitation with GFP-LC3B wild type (GFP-LC3B wild type): no interaction
targeting of mitochondria to LC3B autophagosomes / colocalization with GFP-LC3B [3]: shows colocalization

SQQGGWGTVFSLESEE [arbitrary LIR-similar peptide, residues 196–210 of the human protein BCL2L13 - analog of the yeast Atg32 protein]
affinity to wild type LC3B (in words) (LC3B wild type): weak
affinity to LC3B K49A (in words) (LC3B K49A): weak
